Measurements from the NIST ThermoML archive (doi:10.1016/j.jct.2017.06.020).

Tests used:
[1] = 298.15 K; 101.3 kPa; Liquid; Vibrating tube method
[2] = refractive index (Na D-line) (dimensionless); conditions: 298.15 K; 101.3 kPa; Liquid; Standard Abbe refractometry
[3] = relative permittivity at various frequencies (dimensionless); conditions: 298.15 K; 101.3 kPa; Liquid; Frequency=0.01 MHz; Coaxial cylinder capacitor
[4] = refractive index (Na D-line) (dimensionless); xn = mol fraction of the nth substance listed; conditions: 298.15 K, 101.3 kPa, Liquid, Standard Abbe refractometry
[5] = relative permittivity at various frequencies (dimensionless); xn = mol fraction of the nth substance listed; conditions: 298.15 K, 101.3 kPa, Liquid, Frequency=0.01 MHz, Coaxial cylinder capacitor

CC(C)CCO [3-methylbutan-1-ol]
Conditions	mass density [kg/m3]	refractive index	relative permittivity
[1]	807.16	–	–
[2]	–	1.4048	–
[3]	–	–	14.96

CC(C)CCO [3-methylbutan-1-ol] + CC(=O)c1ccccc1
x2 = 0
Conditions	refractive index	relative permittivity
[4]	1.4048	–
[5]	–	14.96

CC(C)CCO [3-methylbutan-1-ol] + CC(C)=O
Conditions	refractive index, [4]	relative permittivity, [5]
x2 = 0	1.4048	14.96
x2 = 0.1	1.4016	14.72
x2 = 0.2	1.3981	14.62
x2 = 0.3	1.3936	14.71
x2 = 0.4	1.3893	14.96
x2 = 0.5	1.3854	15.44
x2 = 0.6	1.3799	16.08
x2 = 0.7	1.3751	16.95
x2 = 0.8	1.3701	17.99
x2 = 0.9	1.3634	19.21

CC(C)CCO [3-methylbutan-1-ol] + CCC(C)=O
Conditions	refractive index, [4]	relative permittivity, [5]
x2 = 0	1.4048	14.96
x2 = 0.099	1.4024	14.59
x2 = 0.2	1.4001	14.38
x2 = 0.3	1.3972	14.33
x2 = 0.4	1.3948	14.44
x2 = 0.499	1.392	14.69
x2 = 0.599	1.3891	15.12
x2 = 0.7	1.3863	15.7
x2 = 0.8	1.3829	16.43
x2 = 0.9	1.38	17.33

CC(C)CCO [3-methylbutan-1-ol] + C[S+](C)[O-]
Conditions	refractive index, [4]	relative permittivity, [5]
x2 = 0	1.4048	14.96
x2 = 0.1	1.4071	15.92
x2 = 0.2	1.4118	17.56
x2 = 0.3	1.4168	19.79
x2 = 0.4	1.4227	22.45
x2 = 0.5	1.4305	25.51
x2 = 0.6	1.4385	28.95
x2 = 0.7	1.4459	32.76
x2 = 0.8	1.4549	37.01
x2 = 0.9	1.4651	41.68

CC(C)=O [acetone]
Conditions	mass density [kg/m3]	refractive index	relative permittivity
[1]	784.42	–	–
[2]	–	1.3564	–
[3]	–	–	20.69

CC(C)=O [acetone] + CC(C)CCO
x1 = 1
Conditions	refractive index	relative permittivity
[4]	1.3564	–
[5]	–	20.69

CC(C)=O [acetone] + CCCCCO
x1 = 1
Conditions	refractive index	relative permittivity
[4]	1.3564	–
[5]	–	20.69

CC(=O)c1ccccc1 [acetophenone]
Conditions	mass density [kg/m3]	refractive index	relative permittivity
[1]	1022.77	–	–
[2]	–	1.5318	–
[3]	–	–	17.51

CC(=O)c1ccccc1 [acetophenone] + CC(C)CCO
Conditions	refractive index, [4]	relative permittivity, [5]
x1 = 0.101	1.418	14.65
x1 = 0.199	1.4303	14.47
x1 = 0.301	1.4451	14.39
x1 = 0.4	1.4573	14.45
x1 = 0.5	1.4709	14.66
x1 = 0.6	1.4817	14.97
x1 = 0.699	1.4935	15.44
x1 = 0.8	1.5063	16.03
x1 = 0.9	1.5187	16.71
x1 = 1	1.5318	17.51

CC(=O)c1ccccc1 [acetophenone] + CCCCCO
Conditions	refractive index, [4]	relative permittivity, [5]
x1 = 0.1	1.4212	14.86
x1 = 0.2	1.4346	14.71
x1 = 0.3	1.4468	14.66
x1 = 0.4	1.4598	14.75
x1 = 0.501	1.4726	14.94
x1 = 0.6	1.4859	15.25
x1 = 0.7	1.4968	15.65
x1 = 0.8	1.5092	16.19
x1 = 0.9	1.5213	16.83
x1 = 1	1.5318	17.51

CCC(C)=O [butanone]
Conditions	mass density [kg/m3]	refractive index	relative permittivity
[1]	799.75	–	–
[2]	–	1.376	–
[3]	–	–	18.38

CCC(C)=O [butanone] + CC(C)CCO
x1 = 1
Conditions	refractive index	relative permittivity
[4]	1.376	–
[5]	–	18.38

CCC(C)=O [butanone] + CCCCCO
Conditions	refractive index, [4]	relative permittivity, [5]
x1 = 0.1	1.4053	14.81
x1 = 0.2	1.4023	14.68
x1 = 0.3	1.3988	14.63
x1 = 0.4	1.3959	14.73
x1 = 0.5	1.393	14.96
x1 = 0.599	1.3898	15.35
x1 = 0.7	1.3859	15.9
x1 = 0.8	1.3826	16.56
x1 = 0.9	1.3796	17.44
x1 = 1	1.376	18.38

C1CCCCC1 [cyclohexane]
Conditions	mass density [kg/m3]	refractive index	relative permittivity
[1]	773.58	–	–
[2]	–	1.4234	–
[3]	–	–	2.02

C[S+](C)[O-] [dimethyl sulfoxide]
Conditions	mass density [kg/m3]	refractive index	relative permittivity
[1]	1096.07	–	–
[2]	–	1.4767	–
[3]	–	–	46.71

C[S+](C)[O-] [dimethyl sulfoxide] + CC(C)CCO
x1 = 1
Conditions	refractive index	relative permittivity
[4]	1.4768	–
[5]	–	46.71

C[S+](C)[O-] [dimethyl sulfoxide] + CCCCCO
x1 = 1
Conditions	refractive index	relative permittivity
[4]	1.4767	–
[5]	–	46.71

CCCCCO [pentan-1-ol]
Conditions	mass density [kg/m3]	refractive index	relative permittivity
[1]	811.1	–	–
[2]	–	1.4082	–
[3]	–	–	15.12

CCCCCO [pentan-1-ol] + CC(=O)c1ccccc1
x2 = 0
Conditions	refractive index	relative permittivity
[4]	1.4082	–
[5]	–	15.12

CCCCCO [pentan-1-ol] + CC(C)=O
Conditions	refractive index, [4]	relative permittivity, [5]
x2 = 0	1.4082	15.12
x2 = 0.1	1.4049	14.94
x2 = 0.2	1.4015	14.91
x2 = 0.301	1.397	15.01
x2 = 0.399	1.3926	15.28
x2 = 0.5	1.3882	15.73
x2 = 0.601	1.3828	16.35
x2 = 0.701	1.3771	17.21
x2 = 0.8	1.3706	18.21
x2 = 0.9	1.3639	19.36

CCCCCO [pentan-1-ol] + CCC(C)=O
x2 = 0
Conditions	refractive index	relative permittivity
[4]	1.4082	–
[5]	–	15.12

CCCCCO [pentan-1-ol] + C[S+](C)[O-]
Conditions	refractive index, [4]	relative permittivity, [5]
x2 = 0	1.4082	15.12
x2 = 0.099	1.4109	16.27
x2 = 0.201	1.4164	18.04
x2 = 0.3	1.4217	20.24
x2 = 0.4	1.427	22.93
x2 = 0.5	1.4339	25.94
x2 = 0.6	1.44	29.38
x2 = 0.7	1.4488	33.14
x2 = 0.8	1.4573	37.33
x2 = 0.9	1.4675	41.95
